Experiments:
[1] = system: Male ICR mice; test: Analgesic activity test: mouse writhing test by inducing with phenyl-p-quinone; format: in vivo; conditions: po, p.o., read-out: Analgesic effect (% Inhibition)
Protocol: 2. Analgesic Activity Test: Mouse Writhing Test by Inducing with Phenyl-p-quinone Male ICR mice (mean body weight 25 g) were maintained in a controlled lighting environment (12 h on/12 h off) for experiment. Animals received an intraperitoneal injection of 0.3 ml of the chemical irritant phenyl-p-quinone (dissolved in saline containing 5% ethanol to be a close of 4.5 mg/kg) and 6 mins later, the number of abdominal constrictions was counted in the subsequent 6 mins period. Animals (10 animals/group) received 0.2 ml of test compounds solution in vehicle of ethanol/Tween 80/saline (Oct. 10, 1980) intraperitoneally 30 min before the injection of phenyl-p-quinone. In the case of oral administration, 0.2 ml of test compounds solution in vehicle of ethanol/Tween 80/saline (5/5/90) were administered 54 min prior to the 0.2 ml of 0.02% phenyl-p-quinone injection. A reduction in the number of writhes responding to the test drug compound relative to the number responding in saline control group was considered to be indicative of an analgesic effect. Analgesic effect was calculated by % inhibition equation (% inhibition=(C-T)/C×100), wherein C and T represent the number of writhes in control and compound-treated group, respectively.

[2] = target: T1, vanilloid receptor (Rattus norvegicus, UniProt O35433); test: 45Ca influx test (antagonist calcium uptake test) in rat DRG neurons stimulated with capsaicin; format: cell-based; conditions: neonatal SD rat DRG neurons; capsaicin 0.5 μM; 45Ca
T1 construct: DRG nerve cells from the primary culture of 2 days were equilibrated; endogenous in cells; host or cells: primary culture of dorsal root ganglion neurons from neonatal SD rats
T1 sequence (O35433 whole entry): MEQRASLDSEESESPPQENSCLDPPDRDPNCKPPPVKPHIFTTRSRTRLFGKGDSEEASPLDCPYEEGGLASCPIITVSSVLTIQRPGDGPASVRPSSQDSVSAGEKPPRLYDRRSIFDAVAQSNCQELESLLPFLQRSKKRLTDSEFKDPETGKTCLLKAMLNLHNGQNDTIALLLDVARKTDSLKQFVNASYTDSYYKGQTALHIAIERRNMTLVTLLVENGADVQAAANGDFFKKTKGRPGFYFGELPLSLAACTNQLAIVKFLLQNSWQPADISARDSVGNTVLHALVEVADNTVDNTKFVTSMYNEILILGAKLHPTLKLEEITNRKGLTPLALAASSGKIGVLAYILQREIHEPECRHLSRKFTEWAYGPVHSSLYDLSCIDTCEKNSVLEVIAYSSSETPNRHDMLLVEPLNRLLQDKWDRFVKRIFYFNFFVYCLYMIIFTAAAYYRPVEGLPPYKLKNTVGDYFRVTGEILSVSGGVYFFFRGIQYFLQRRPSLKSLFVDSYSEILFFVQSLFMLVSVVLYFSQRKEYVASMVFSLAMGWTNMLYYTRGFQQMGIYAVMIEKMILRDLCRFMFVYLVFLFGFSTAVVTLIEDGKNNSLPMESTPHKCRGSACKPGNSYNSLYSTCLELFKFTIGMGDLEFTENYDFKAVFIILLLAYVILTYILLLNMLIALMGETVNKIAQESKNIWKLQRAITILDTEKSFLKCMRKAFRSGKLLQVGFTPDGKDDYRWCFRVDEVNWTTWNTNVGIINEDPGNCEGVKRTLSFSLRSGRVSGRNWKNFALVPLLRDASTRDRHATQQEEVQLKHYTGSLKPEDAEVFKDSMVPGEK
In short: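 Neonatal SD rat DRG neurons, cultured 2 days with NGF 200 ng/ml, exposed to test compound plus 0.5 μM capsaicin and 45Ca (10 μCi/ml) in HEPES-buffered Ca/Mg-free HBSS, pH 7.4, 10 min at room temperature. Influx counted by scintillation; activity as percent inhibition of the 0.5 μM capsaicin maximal response.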

IC50 [2] [µM] | SMILES | inhibition in vivo at 3 mg/kg [1] [%] | inhibition in vivo at 0.3 mg/kg [1] [%]
0.05 | CC1CCc2c(Oc3nc(C(=O)N[C@H](C)c4cc(F)c(NS(C)(=O)=O)c(F)c4)co3)cccc21 (stereo partly shown) [Example 30, 2-(1-Methyl-indan-4-yloxy)-oxazole-4-carboxylic acid [1-(3,5-difluoro-4-methanesulfonylamino-phenyl)-ethyl]-amide] | 16 | –
0.28 | C[C@@H](NC(=O)c1coc(Oc2cccc(C3CC3)c2)n1)c1cc(F)c(NS(C)(=O)=O)c(F)c1 [Example 32, 2-(3-Cyclopropyl-phenoxy)-oxazole-4-carboxylic acid [1-(3,5-difluoro-4-methanesulfonylamino-phenyl)-ethyl]-amide] | 32 | –
1.8 | CC(c1cccc(Oc2nc(C(=O)N[C@H](C)c3cc(F)c(NS(C)(=O)=O)c(F)c3)co2)c1)C(F)(F)F (stereo partly shown) [Example 35, 2-[3-(2,2,2-Trifluoro-1-methyl-ethyl)-phenoxy]-oxazole-4-carboxylic acid [1-(3,5-difluoro-4-methanesulfonylamino-phenyl)-ethyl]-amide] | – | 29
0.13 | CCCc1c(Oc2nc(C(=O)N[C@H](C)c3cc(F)c(NS(C)(=O)=O)c(F)c3)co2)cccc1C(F)(F)F [Example 42, 2-(2-Propyl-3-trifluoromethyl-phenoxy)-oxazole-4-carboxylic acid [1-(3,5-difluoro-4-methanesulfonylamino-phenyl)-ethyl]-amide] | – | 30
0.43 | C[C@@H](NC(=O)c1coc(Oc2cccc(C(F)(F)F)c2C2CC2)n1)c1cc(F)c(NS(C)(=O)=O)c(F)c1 [Example 46, 2-(2-Cyclopropyl-3-trifluoromethyl-phenoxy)-oxazole-4-carboxylic acid [1-(3,5-difluoro-4-methanesulfonylamino-phenyl)-ethyl]-amide] | 53 | –
0.36 | C[C@@H](NC(=O)c1coc(-c2cccc(C(F)(F)F)c2)n1)c1cc(F)c(NS(C)(=O)=O)c(F)c1 [Example 67, 2-(3-Trifluoromethyl-phenyl)-oxazole-4-carboxylic acid [1-(3,5-difluoro-4-methanesulfonylamino-phenyl)-ethyl]-amide] | 43 | –
0.16 | CC(C)c1cccc(-c2nc(C(=O)N[C@H](C)c3cc(F)c(NS(C)(=O)=O)c(F)c3)co2)c1 [Example 69, 2-(3-Isopropyl-phenyl)-oxazole-4-carboxylic acid [1-(3,5-difluoro-4-methanesulfonylamino-phenyl)-ethyl]-amide] | – | 35
0.03 | CC(C)c1cccc(-c2nc(C(=O)N[C@H](C)c3cc(F)c(NS(C)(=O)=O)c(F)c3)cs2)c1 [Example 80, 2-(3-Isopropyl-phenyl)-thiazole-4-carboxylic acid [1-(3,5-difluoro-4-methanesulfonylamino-phenyl)-ethyl]-amide] | 22 | –
0.14 | C[C@@H](NC(=O)c1coc(-c2cc(C(F)(F)F)cc(C(F)(F)F)c2)n1)c1cc(F)c(NS(C)(=O)=O)c(F)c1 [Example 87, 2-(3,5-Bis-trifluoromethyl-phenyl)-oxazole-4-carboxylic acid [1-(3,5-difluoro-4-methanesulfonylamino-phenyl)-ethyl]-amide] | 59 | –
0.21 | C[C@@H](NC(=O)c1coc(-c2ccc(Cl)c(C(F)(F)F)c2)n1)c1cc(F)c(NS(C)(=O)=O)c(F)c1 [Example 91, 2-(4-Chloro-3-trifluoromethyl-phenyl)-oxazole-4-carboxylic acid [1-(3,5-difluoro-4-methanesulfonylamino-phenyl)-ethyl]-amide] | 25 | –
0.91 | C[C@@H](NC(=O)c1csc(-c2cc(C(F)(F)F)cc(C(F)(F)F)c2)n1)c1cc(F)c(NS(C)(=O)=O)c(F)c1 [Example 93, 2-(3,5-Bis-trifluoromethyl-phenyl)-thiazole-4-carboxylic acid [1-(3,5-difluoro-4-methanesulfonylamino-phenyl)-ethyl]-amide] | 41 | –
0.36 | C[C@@H](NC(=O)c1csc(-c2cccc(C(F)(F)F)c2)n1)c1cc(F)c(NS(C)(=O)=O)c(F)c1 [Example 94, 2-(3-Trifluoromethyl-phenyl)-thiazole-4-carboxylic acid [1-(3,5-difluoro-4-methanesulfonylamino-phenyl)-ethyl]-amide] | 46 | –
0.073 | C[C@@H](NC(=O)c1csc(-c2cccc(C3CC3)c2)n1)c1cc(F)c(NS(C)(=O)=O)c(F)c1 [Example 101, 2-(3-Cyclopropyl-phenyl)-thiazole-4-carboxylic acid [1-(3,5-difluoro-4-methanesulfonylamino-phenyl)-ethyl]-amide] | 33 | –
0.1 | C[C@@H](NC(=O)c1ccc(-c2cccc(C3CC3)c2)o1)c1cc(F)c(NS(C)(=O)=O)c(F)c1 [Example 102, 5-(3-Cyclopropyl-phenyl)-furan-2-carboxylic acid [1-(3,5-difluoro-4-methanesulfonylamino-phenyl)-ethyl]-amide] | 58 | –
0.68 | CS(=O)(=O)Nc1ccc(CNC(=O)c2ccc(-c3ccccc3C(F)(F)F)o2)cc1F [Example 117, 5-(2-Trifluoromethyl-phenyl)-furan-2-carboxylic acid 3-fluoro-4-methanesulfonylamino-benzylamide] | 39 | –
0.37 | CS(=O)(=O)Nc1ccc(CNC(=O)c2ccc(-c3cccc(C(F)(F)F)c3)o2)cc1F [Example 118, 5-(3-Trifluoromethyl-phenyl)-furan-2-carboxylic acid 3-fluoro-4-methanesulfonylamino-benzylamide] | 42 | –
0.13 | C[C@@H](NC(=O)c1ccc(-c2ccccc2C(F)(F)F)o1)c1cc(F)c(NS(C)(=O)=O)c(F)c1 [Example 119, 5-(2-Trifluoromethyl-phenyl)-furan-2-carboxylic acid [1-(3,5-difluoro-4-methanesulfonylamino-phenyl)-ethyl]-amide] | 38 | –
0.064 | C[C@@H](NC(=O)c1ccc(-c2cccc(C(F)(F)F)c2)o1)c1cc(F)c(NS(C)(=O)=O)c(F)c1 [Example 120, (R)-5-(3-Trifluoromethyl-phenyl)-furan-2-carboxylic acid [1-(3,5-difluoro-4-methanesulfonylamino-phenyl)-ethyl]-amide] | 60 | –
0.045 | C[C@@H](NC(=O)c1ccc(-c2cc(C(F)(F)F)cc(C(F)(F)F)c2)o1)c1cc(F)c(NS(C)(=O)=O)c(F)c1 [Example 123, 5-(3,5-Bis-trifluoromethyl-phenyl)-furan-2-carboxylic acid [1-(3,5-difluoro-4-methanesulfonylamino-phenyl)-ethyl]-amide] | – | 21

SMILES | IC50 [2] [µM] | inhibition in vivo at 3 mg/kg [1] [%] | inhibition in vivo at 0.3 mg/kg [1] [%]
C[C@@H](NC(=O)c1coc(-c2cccc(C3CC3)c2)n1)c1cc(F)c(NS(C)(=O)=O)c(F)c1 [Example 100, 2-(3-Cyclopropyl-phenyl)-oxazole-4-carboxylic acid [1-(3,5-difluoro-4-methanesulfonylamino-phenyl)-ethyl]-amide] | 0.048 | 35 | –
